Test: Stability of Biolimus A9 at 40° C. with added anti-oxidant BHT
Type: physicochemical
Description: The yield data of different amounts of anti-oxidant as added into Biolimus A9 with respect to time lapse of weeks are summarized in Table 1 as below-mentioned.

SMILES: CCOCCO[C@@H]1CC[C@@H](C[C@@H](C)[C@@H]2CC(=O)[C@H](C)/C=C(\C)[C@@H](O)[C@@H](OC)C(=O)[C@H](C)C[C@H](C)/C=C/C=C/C=C(\C)[C@@H](OC)C[C@@H]3CC[C@@H](C)[C@@](O)(O3)C(=O)C(=O)N3CCCC[C@H]3C(=O)O2)C[C@H]1OC [Biolimus A9]
- Purity (%) of Biolimus A9 (BHT 0.0% (w/w), 0 week): 99.7%
- Purity (%) of Biolimus A9 (BHT 0.0% (w/w), 2 weeks): 98.2%
- Purity (%) of Biolimus A9 (BHT 0.0% (w/w), 4 weeks): 88.4%
- Purity (%) of Biolimus A9 (BHT 0.0% (w/w), 6 weeks): 69.7%
- Purity (%) of Biolimus A9 (BHT 0.1% (w/w), 0 week): 99.7%
- Purity (%) of Biolimus A9 (BHT 0.1% (w/w), 2 weeks): 99.5%
- Purity (%) of Biolimus A9 (BHT 0.1% (w/w), 4 weeks): 99.5%
- Purity (%) of Biolimus A9 (BHT 0.1% (w/w), 6 weeks): 99.5%
- Purity (%) of Biolimus A9 (BHT 0.2% (w/w), 0 week): 99.6%
- Purity (%) of Biolimus A9 (BHT 0.2% (w/w), 2 weeks): 99.6%
- Purity (%) of Biolimus A9 (BHT 0.2% (w/w), 4 weeks): 99.5%
- Purity (%) of Biolimus A9 (BHT 0.2% (w/w), 6 weeks): 99.5%
- Purity (%) of Biolimus A9 (BHT 0.5% (w/w), 0 week): 99.6%
- Purity (%) of Biolimus A9 (BHT 0.5% (w/w), 2 weeks): 99.5%
- Purity (%) of Biolimus A9 (BHT 0.5% (w/w), 4 weeks): 99.4%
- Purity (%) of Biolimus A9 (BHT 0.5% (w/w), 6 weeks): 99.4%
- Purity (%) of Biolimus A9 (BHT 1.0% (w/w), 0 week): 99.6%
- Purity (%) of Biolimus A9 (BHT 1.0% (w/w), 2 weeks): 99.5%
- Purity (%) of Biolimus A9 (BHT 1.0% (w/w), 4 weeks): 99.4%
- Purity (%) of Biolimus A9 (BHT 1.0% (w/w), 6 weeks): 99.4%
- yield after six-week storage (BHT added for 0.1%, 0.2, 0.5%, and 1% (w/w), six-week storage): more than 99.4%
